The results in this text go back to US7199151B2 (priority 1996, dated 2007).

Common to all, as to format: cell-based
Assay [1] relates to leukemia cancer cell lines. The settings on record: six leukemia lines for the conjugates, four for Taxol; FIGS. 1, 10 and 19. On the procedure: (§1) Conjugates 1 and 2 were sent to the United States National Cancer Institute (NCI) for screening in the NCI's anticancer screening program. The conjugates were provided in ethanol (approximately 40 mg analog/2 ml ethanol). […] Instructions were provided to store at 4° C. and to open the vials only when ready for immediate experimental use. Instructions also were provided to use the ethanol solutions containing the conjugates directly or to dissolve the analogs further in DMSO (dimethylsulfoxide) at appropriate concentrations, with vortexing if necessary for adequate dispersal.
(§2) The activities of conjugates 1 and 2 were tested against 57 cancer cell lines. […] To understand the data, reference is made to the guides provided by the NCI, excerpted as follows:
(§3) The Calculated Measurement of Effect: Percentage Growth (PG)
(§4) The measured effect of the compound on a cell line is currently calculated according to one or the other of the following two expressions: If (Mean ODtest−Mean ODtzero)≧0, then PG=100×(Mean ODtest−Mean ODtzero)/(Mean ODctrl−Mean Odtzero) If (Mean ODtest−Mean ODtzero)<0, then PG=100×(Mean ODtest−Mean Odtzero)/Mean Odtzero Where: • Mean ODtzero=The average of optical density measurements of SRB-derived color just before exposure of cells to the test compound. • Mean ODtest=The average of optical density measurements of SRB-derived color after 48 hours exposure of cells to the test compound. • Mean ODctrl=The average of optical density measurements of SRB-derived color after 48 hours with no exposure of cells to the test compound. • Experimental data was collected against each cell line . . . Each concentration is expressed as the log10 (molar or μg/ml) . . . The response parameters GI50, TGI, and LC50 are interpolated values representing the concentrations at which the PG is +50, 0, and −50, respectively. Sometimes these response parameters cannot be obtained by interpolation. If, for instance, all of the PGs in a given row exceed +50, then none of the three parameters can be obtained by interpolation. In such a case, the value given for each response parameter is the highest concentration tested . . . This practice is extended similarly to the other possible situations where a response parameter cannot be obtained by interpolation.
(§5) Dose-Response Curves: • The dose-response curve page of the data package is created by plotting the PGs against the log10 of the corresponding concentration for every cell line. The cell line curves are grouped by subpanel. Horizontal lines are provided at the PG values of +50, 0, and −50. The concentrations corresponding to points where the curves cross these lines are the GI50, TGI and LC50, respectively.

Assay [2] deals with 57 cancer cell lines. The settings on record: average over all cell lines; −10 used where Taxol was active at −10.0 (27 instances). On the procedure: as §1, §2, §3, §4, §5
The subject of assay [3] is CNSU251. On the procedure:
as §1, §2, §3, §4, §5

Assay [4] has as its system non-small cell lung cancer lines H522 and H460. How it is done: as §1, §2, §3, §4, §5
Assay [5] relates to MDA-N and MDA-MB-435 breast cancer cell lines. The settings on record: at all concentrations tested. How it is done: as §1, §2, §3, §4, §5
In assay [6] the test system is CNSSF 268. Put plainly: cells. The settings on record: concentration at which PG is +50, 48 hours exposure, SRB. On the procedure: as §1, §2, §3
as §4, with “In such a case, the value given for each response parameter is the highest concentration tested . . . This practice is extended similarly to the other possible situations where a response parameter cannot be obtained by interpolation.” left out

Assay [7] has as its system CNS SF-539. Kind of assay: cells. The following applies: 48 hours exposure, SRB. On the procedure:
as §1, §2, §3
as §4, with “In such a case, the value given for each response parameter is the highest concentration tested . . . This practice is extended similarly to the other possible situations where a response parameter cannot be obtained by interpolation.” left out

The GI50 is the concentration that inhibits growth by half. As for `CC(=O)O[C@H]1C(=O)[C@@]2(C)[C@H]([C@H](OC(=O)c3ccccc3)[C@]3(O)C[C@H](OC(=O)[C@H](O)[C@@H](NC(=O)c4ccccc4)c4ccccc4)C(C)=C1C3(C)C)[C@]1(OC(C)=O)CO[C@@H]1C[C@@H]2O` [Taxol, paclitaxel], in assay [1], the “effectiveness against leukemia cancer cell lines” value is reported as “somewhat effective”. The “average GI50 across all cell lines tested” value in assay [2] is recorded as −9.19 log10 (molar or μg/ml). Moreover, in assay [3], the “effectiveness at TGI against CNSU251 relative to other CNS cell lines” value was “least effective”. In addition, in assay [4], the “difference in effectiveness at TGI, H522 versus H460” value is “about 3 logs” and the “relative effectiveness at TGI, H522 versus H460” value is recorded as “more effective against non-small cell lung cancer line H522 than against H460”. Moreover, in assay [5], the “relative activity toward MDA-N versus MDA-MB-435” value is recorded as “equivalent in activity”. Also, the GI50 in assay [6] was under 0.0001 µM. This molecule also gave a GI50 in assay [7] (CNSSF-539, concentration at which PG is +50, CNS SF 539) of 0.0302 µM. Moreover, in assay [7] (concentration at which PG is 0, CNS SF-539), the TGI is listed as −6.95 log10 (molar or μg/ml).
